Results reported in patent publication US12566283B2, “Optical absorbent” (LMS CO., LTD., priority 2022, dated 2026).

Legend:
Format in all cases: physicochemical
[1] = Test Example 2: absorption maximum of optical absorption film before and after high temperature and high humidity evaluation; conditions: for ΔA: 100×(Af−Ai)/Ai; for Δλ: 100×(λf−λi)/λi; for Ai (transmittance at the absorption maximum wavelength) / λi (absorption maximum wavelength): optical absorption film before being maintained at 85° C.; for Af (transmittance at the absorption maximum wavelength) / λf (absorption maximum wavelength): optical absorption film maintained at 85° C.
Protocol: (§1) A coating solution was prepared by mixing a silicone resin (Dow Chemical, RSN-0217) as a resin component, an optical absorbent, and a solvent (Cyclohexanone). The mixing ratio of the resin component, the optical absorbent and the solvent was 69.3:0.99:29.7 in weight ratio (Resin:Optical Absorbent:Solvent).
(§2) The coating solution was coated on a transparent substrate (a glass substrate manufactured by SCHOTT Co.) and maintained at 140° C. for about 2 hours to form an optical absorption film having a thickness of about 6 μm. The optical absorbent of Embodiment 1, Embodiment 2 or Comparative Example 1 was used as the optical absorbent.
For the optical absorption film prepared in Test Example 1, the absorbance spectrum of the optical absorption film prepared by using the optical absorbent of Embodiment 1 is shown in FIG. 7, the absorbance spectrum of the optical absorption film prepared by using the optical absorbent of Embodiment 2 is shown in FIG. 8, and the absorbance spectrum of the optical absorption film prepared by using the optical absorbent of Comparative Example 1 is shown in FIG. 9. In FIGS. 7 to 9, A-1, A-2, and A-3 indicate evaluations of the optical absorption films of Embodiments 1 and 2 and Comparative Example 1, respectively. […] The high-temperature and high-humidity evaluation is an evaluation where the optical absorption film is maintained at a temperature of 85° C. and under a relative humidity of 85% for 120 hours.
In Table 3, Af is the transmittance at the absorption maximum wavelength of the optical absorption film maintained at 85° C. temperature and under 85% relative humidity for 120 hours, λf is the absorption maximum wavelength at this time, and Ai is the transmittance at the absorption maximum wavelength of the optical absorption film before being maintained at 85° C. temperature and under 85% relative humidity for 120 hours. λi is the absorption maximum wavelength at this time.
In Table 3, ΔA is a value calculated as 100×(Af−Ai)/Ai and Δλ is a value calculated as 100×(λf−λi)/λi.

[2] = Pyrolysis temperature (Td 5%) analysis by TGA; conditions: 25° C. to 800° C., 10° C./min, nitrogen 60 cm^3/min
Protocol: The Td 5% is a value obtained through Thermogravimetric Analysis (TGA). It is a value (Td 5%) at the weight loss of 95% confirmed in a temperature range of 25° C. to 800° C., with a heating rate of 10° C./min and under nitrogen (N2) atmosphere condition of 60 cm^3/min.
Thermogravimetric analysis (TGA) was performed by using TGA N-1000 equipment manufactured by Scinco Co. The analysis was performed by using about 3 mg of the sample (optical absorbent) and the analysis was conducted at a temperature range of 25° C. to 800° C., with a temperature increase rate of 10° C./min, and under 60 cm^3/min of a nitrogen (N2) atmosphere. As for the Td pyrolysis temperature, the value(Td 5%) at 95% weight loss was used.

[3] = Measuring solubility of the optical absorbent in methylene chloride; conditions: room temperature (about 25° C.)
Protocol: 3. Measuring Solubility The solubility of the optical absorbent was evaluated. Solubility was determined according to the following criteria by evaluating the solubility of the optical absorbent in the solvent (MC, Methylene Chloride) at room temperature (about 25° C.). <Solubility Criteria> • A: When the solubility is 1% by mass or more. • B: When the solubility is 0.5% by mass or more and less than 1% by mass. • C: When the solubility is 0.2% by mass or more and less than 0.5% by mass. • D: When the solubility is less than 0.2% by mass. 4. Pyrolysis Temperature (Td 5%) Analysis

[4] = Test Example 1: transmittance of optical absorption film before and after reliability evaluation (85° C., 85% relative humidity, 120 hours); conditions: for Tave 425~465 nm, Δ / Tave 466~480 nm, Δ / Tave 480~560 nm, Δ / Tmin 425~465 nm, Δ / Tmin 466~480 nm, Δ / Λmax Tmax, Δ: change rate 100×(A−B)/B; for Tmin 425~465 nm, B: silicone resin film about 6 μm; for Tmin 425~465 nm, B / Tmin 425~465 nm, A / Tmin 466~480 nm, A / Tmin 466~480 nm, B: minimum transmittance; for Tmin 425~465 nm, B / Tave 425~465 nm, B / Tave 466~480 nm, B / Tave 480~560 nm, B / Tmin 466~480 nm, B: before reliability evaluation; for Tave 425~465 nm, A / Tave 466~480 nm, A / Tave 480~560 nm, A / Tave 425~465 nm, B / Tave 466~480 nm, B / Tave 480~560 nm, B / Tmin 425~465 nm, A / Tmin 466~480 nm, A / Tmin 466~480 nm, B: silicone resin film; for Tave 425~465 nm, A / Tave 466~480 nm, A / Tave 480~560 nm, A / Tave 425~465 nm, B / Tave 466~480 nm, B / Tave 480~560 nm, B: average transmittance; for Tave 425~465 nm, A / Tave 466~480 nm, A / Tave 480~560 nm, A / Tmin 425~465 nm, A / Tmin 466~480 nm, A: after 85° C., 85% relative humidity, 120 hours
Protocol: 2. Evaluation of Transmittance Spectrum
The transmittance spectrum was measured by using a spectrophotometer (Manufacturer: Perkinelmer Co., Product Name: Lambda 750 Spectrophotometer) for a specimen obtained by cutting the measurement subject (e.g., an optical absorption film) to 10 mm and 10 mm in width and length, respectively. The transmittance spectrum was measured for each wavelength and incident angle according to the manual of the equipment. The specimen was placed on a straight line between the measuring beam and the detector of the spectrophotometer, and the transmittance spectrum was checked while changing the incident angle of the measuring beam from 0° to 40°. Unless specifically stated otherwise, the result of the transmittance spectrum in this embodiment was the result when the incident angle is 0°. The incident angle of 0° is a direction substantially parallel to the direction normal to the surface of the specimen.
The average transmittance within a predetermined wavelength region in the transmittance spectrum was the result of measuring the transmittance of each wavelength while increasing the wavelength by 1 nm from the shortest wavelength in the wavelength region, and then calculating the arithmetic average of the measured transmittance. The maximum transmittance is the maximum one among the transmittance measured while increasing the wavelength by 1 nm. For example, the average transmittance within the wavelength range of 350 nm to 360 nm is the arithmetic average of transmittances measured at wavelengths of 350 nm, 351 nm, 352 nm, 353 nm, 354 nm, 355 nm, 356 nm, 357 nm, 358 nm, 359 nm and 360 nm and the maximum transmittance within the wavelength range of 350 nm to 360 nm is the highest transmittance among transmittances measured at wavelengths of 350 nm, 351 nm, 352 nm, 353 nm, 354 nm, 355 nm, 356 nm, 357 nm, 358 nm, 359 nm and 360 nm.
as §1, §2
Table 2 below summarizes the transmittance of the optical absorption film before and after reliability evaluation in the ultraviolet and the near infrared regions. The reliability evaluation is an evaluation of the optical absorption film maintained at 85° C. and 85% relative humidity for 120 hours. In Table 2, B means the result before performing the reliability evaluation, and A means the result after performing the reliability evaluation. In addition, in Table 2, Λmax means the transmittance at the absorption maximum.
In Table 2, Δ is the change rate (%) of each characteristic before and after the reliability evaluation and it is a result calculated as 100×(A−B)/B, where A is a numerical value indicated under column A in Table 2, and B is a numerical value indicated under column B in Table 2. In Table 2, Tmax denotes the highest transmittance within a corresponding wavelength range, Tave denotes an average transmittance within a corresponding wavelength range, and Tmin denotes a minimum transmittance within a corresponding wavelength range.

[5] = Measuring absorption maximum of the optical absorbent in chloroform; conditions: about 10^−5 M
Protocol: 1. Measuring Absorption Maximum
The absorption maximum was evaluated by a conventional method. Specifically, the sample was dissolved in a chloroform solvent at a concentration of about 10^−5 M and then evaluated by using a measuring instrument (Agilent, Varian Cary 4000).

[6] = 85% relative humidity, 120 hours

Row | SMILES | ΔA [1] [%] | Δλ [1] [%] | Ai (transmittance at the absorption maximum wavelength) [1, 6] [%] | λi (absorption maximum wavelength) [1, 6] [nm] | Af (transmittance at the absorption maximum wavelength) [1, 6] [%] | λf (absorption maximum wavelength) [1, 6] [nm] | Td 5% (5% pyrolysis temperature) [2] [°C] | Solubility [3] | Tave 425~465 nm, Δ [4] [%] | Tave 466~480 nm, Δ [4] [%] | Tave 480~560 nm, Δ [4] [%] | Tmin 425~465 nm, Δ [4] [%] | Tmin 466~480 nm, Δ [4] [%] | Λmax Tmax, Δ [4] [%] | Tmin 425~465 nm, B [4] | Tave 425~465 nm, A [4] | Tave 466~480 nm, A [4] | Tave 480~560 nm, A [4] | Tave 425~465 nm, B [4] | Tave 466~480 nm, B [4] | other results
1 | C/C(C1=Nc2ccc([Si](C)(C)C)cc2C1(C)C)=C1/C(=O)C(C(/C)=C2/Nc3ccc([Si](C)(C)C)cc3C2(C)C)=C1O [Comparative Example 1, reference compound] | 36.7 | 24.4 | 66.3 | 731 | 90.6 | 909 | 187 | A (When the solubility is 1% by mass or more) | 0 | −0.1 | −0.1 | 0.3 | −0.1 | 34.7 | 91.35 | 92.03 | 92.07 | 92.27 | 91.99 | 92.14 | light absorption characteristics before and after high temperature and high humidity ([1]; optical absorption film, 85° C., 85% relative humidity, 120 hours, FIGS. 7 to 9): almost lost; Tave 480~560 nm, B [4]: 92.32; Tmin 425~465 nm, A [4]: 91.62; Tmin 466~480 nm, A [4]: 91.76; Tmin 466~480 nm, B [4]: 91.84; Absorption Maximum Wavelength [5]: 738 nm; Absorption Maximum Wavelength ([5]; listed as A3): about 738 nm
2 | CC1N(CCC[Si](C)(C)C)c2ccc(C3=C([O-])/C(=c4\ccc5c(c4)C(C)(C)C(C)[N+]=5CCC[Si](C)(C)C)C3=O)cc2C1(C)C (stereo not shown) [Embodiment 1] | 8.2 | 0 | 6.12 | 658 | 6.62 | 658 | 247 | A (When the solubility is 1% by mass or more) | −0.3 | −0.1 | −0.1 | −0.2 | 0 | 8.2 | 89.64 | 90.26 | 89.58 | 91.06 | 90.49 | 89.64 | Tave 480~560 nm, B [4]: 91.17; Tmin 425~465 nm, A [4]: 89.42; Tmin 466~480 nm, A [4]: 89.10; Tmin 466~480 nm, B [4]: 89.06; Absorption Maximum Wavelength [5]: 652 nm; Absorption Maximum Wavelength ([5]; listed as A1): about 652 nm
3 | CC1N(CCC[Si](C)(C)C)c2c(cc(C3=C([O-])/C(=c4/cc5c(c6ccccc46)=[N+](CCC[Si](C)(C)C)C(C)C5(C)C)C3=O)c3ccccc23)C1(C)C (stereo not shown) [Embodiment 2] | 6.8 | 0 | 8.91 | 765 | 9.52 | 765 | 260 | A (When the solubility is 1% by mass or more) | −0.2 | 0 | −0.1 | −0.3 | 0.1 | 7 | 88.75 | 89.72 | 88.64 | 90.86 | 89.87 | 88.61 | Tave 480~560 nm, B [4]: 90.93; Tmin 425~465 nm, A [4]: 88.52; Tmin 466~480 nm, A [4]: 87.95; Tmin 466~480 nm, B [4]: 87.88; Absorption Maximum Wavelength [5]: 772 nm; Absorption Maximum Wavelength ([5]; listed as A2): about 772 nm
